# Experimental data: PMC7464492, “Cisplatin Decreases ENaC Activity Contributing to Renal Salt Wasting Syndrome” (Cancers, 2020)
# Target: T1, epithelial Na+ channel (mENaC; α-, β- and γ-mouse ENaC subunits) (Mus musculus, UniProt Q61180+Q9WU38+Q9WU39)
# T1 construct: gene Scnn1a; α-, β- and γ-mouse ENaC subunits genetically linked to NH2-terminal eCFP, expressed in CHO cells; with β- and γ-ENaC subunits (Scnn1b, Scnn1g)
# T1 sequence (Q61180 1-699): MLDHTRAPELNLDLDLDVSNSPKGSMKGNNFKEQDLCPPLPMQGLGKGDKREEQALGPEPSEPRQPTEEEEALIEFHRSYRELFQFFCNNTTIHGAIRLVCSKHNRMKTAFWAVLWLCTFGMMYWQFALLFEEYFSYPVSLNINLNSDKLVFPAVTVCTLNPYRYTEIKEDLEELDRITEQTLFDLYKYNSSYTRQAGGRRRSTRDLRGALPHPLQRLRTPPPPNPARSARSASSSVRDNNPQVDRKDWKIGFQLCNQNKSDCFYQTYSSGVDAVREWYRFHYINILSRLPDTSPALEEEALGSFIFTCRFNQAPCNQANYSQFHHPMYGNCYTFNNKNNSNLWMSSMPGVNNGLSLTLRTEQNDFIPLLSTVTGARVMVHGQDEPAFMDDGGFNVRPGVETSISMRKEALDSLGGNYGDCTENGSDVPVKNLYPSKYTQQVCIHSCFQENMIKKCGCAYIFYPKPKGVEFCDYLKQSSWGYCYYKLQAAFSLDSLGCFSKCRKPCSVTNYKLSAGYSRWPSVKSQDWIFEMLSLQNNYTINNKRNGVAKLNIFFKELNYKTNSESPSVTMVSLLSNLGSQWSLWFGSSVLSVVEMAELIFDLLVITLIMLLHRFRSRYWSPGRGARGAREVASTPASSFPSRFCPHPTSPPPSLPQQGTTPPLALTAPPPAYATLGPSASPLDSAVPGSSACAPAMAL
# T1 sequence (Q9WU38 1-638): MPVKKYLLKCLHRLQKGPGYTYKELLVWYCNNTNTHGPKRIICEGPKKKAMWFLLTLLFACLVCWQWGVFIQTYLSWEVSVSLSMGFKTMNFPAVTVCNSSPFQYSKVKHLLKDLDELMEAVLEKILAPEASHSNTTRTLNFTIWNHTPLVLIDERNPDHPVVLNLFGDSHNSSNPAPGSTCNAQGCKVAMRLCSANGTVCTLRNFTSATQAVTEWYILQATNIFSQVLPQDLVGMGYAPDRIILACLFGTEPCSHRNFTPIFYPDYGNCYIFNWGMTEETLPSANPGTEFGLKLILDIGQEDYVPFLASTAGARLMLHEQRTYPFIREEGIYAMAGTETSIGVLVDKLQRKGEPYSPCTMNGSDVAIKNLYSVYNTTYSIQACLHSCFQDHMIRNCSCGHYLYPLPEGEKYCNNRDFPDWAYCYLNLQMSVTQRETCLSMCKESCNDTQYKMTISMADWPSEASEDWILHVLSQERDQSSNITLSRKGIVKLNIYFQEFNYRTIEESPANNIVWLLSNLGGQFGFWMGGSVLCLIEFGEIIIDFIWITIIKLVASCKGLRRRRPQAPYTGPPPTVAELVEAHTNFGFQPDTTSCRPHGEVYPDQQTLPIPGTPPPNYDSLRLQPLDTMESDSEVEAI
# T1 sequence (Q9WU39 1-655): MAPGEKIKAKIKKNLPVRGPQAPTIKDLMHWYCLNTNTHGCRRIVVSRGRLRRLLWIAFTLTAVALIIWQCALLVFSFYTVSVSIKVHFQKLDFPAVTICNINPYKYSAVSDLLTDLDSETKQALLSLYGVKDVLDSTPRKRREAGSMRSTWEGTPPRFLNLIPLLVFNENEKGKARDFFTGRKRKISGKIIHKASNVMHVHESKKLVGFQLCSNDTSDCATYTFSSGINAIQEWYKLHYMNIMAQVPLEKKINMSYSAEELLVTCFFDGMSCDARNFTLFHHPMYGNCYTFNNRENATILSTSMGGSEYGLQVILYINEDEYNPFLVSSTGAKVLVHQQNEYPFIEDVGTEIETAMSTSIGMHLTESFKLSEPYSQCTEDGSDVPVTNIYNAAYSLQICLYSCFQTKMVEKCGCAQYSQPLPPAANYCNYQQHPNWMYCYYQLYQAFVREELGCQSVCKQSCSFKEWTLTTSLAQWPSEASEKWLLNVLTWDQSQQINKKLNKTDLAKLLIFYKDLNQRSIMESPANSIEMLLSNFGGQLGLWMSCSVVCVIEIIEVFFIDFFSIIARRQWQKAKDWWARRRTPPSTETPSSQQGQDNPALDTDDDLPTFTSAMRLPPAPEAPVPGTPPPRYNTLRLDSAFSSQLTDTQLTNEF
# Test: whole-cell patch clamp dose-response and competition with amiloride in CHO cells (partial inhibitor, Emax […]); direct action inferred, secondary effects not excluded
# Format: cell-based
compound,measurement,value
"[NH2][Pt]([NH2])([Cl])[Cl] [CDDP, cis-diamminedichloroplatinum (II)]",IC50,1 ± 0.18 µM
